Changes are numbered by the printed parent chain. Counter-ions that a name gives are not always drawn.
T1: acetolactate synthase (ALS), resistant enzyme from R-XANST (Xanthium sp., UniProt Q41716)
T1 construct: mature chloroplast form
T1 sequence (Q41716 78-648): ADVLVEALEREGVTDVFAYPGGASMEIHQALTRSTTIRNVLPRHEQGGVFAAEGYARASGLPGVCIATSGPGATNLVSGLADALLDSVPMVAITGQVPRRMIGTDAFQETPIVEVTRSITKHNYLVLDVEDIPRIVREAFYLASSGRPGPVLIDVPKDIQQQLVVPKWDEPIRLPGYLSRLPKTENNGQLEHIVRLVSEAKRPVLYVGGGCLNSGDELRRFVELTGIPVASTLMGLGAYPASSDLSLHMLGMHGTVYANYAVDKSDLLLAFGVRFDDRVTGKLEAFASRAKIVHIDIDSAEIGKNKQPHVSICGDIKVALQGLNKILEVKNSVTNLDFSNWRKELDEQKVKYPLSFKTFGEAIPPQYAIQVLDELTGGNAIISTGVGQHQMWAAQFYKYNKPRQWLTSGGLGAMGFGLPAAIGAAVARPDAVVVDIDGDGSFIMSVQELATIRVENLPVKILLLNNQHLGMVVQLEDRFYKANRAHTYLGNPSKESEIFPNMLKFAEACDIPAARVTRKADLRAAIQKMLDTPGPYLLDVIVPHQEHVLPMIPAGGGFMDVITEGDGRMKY

T2: acetolactate synthase (ALS), sensitive enzyme from S-XANST (Xanthium sp., UniProt Q41717)
T2 construct: mature chloroplast form
T2 sequence (Q41717 78-648): T1 sequence (Q41716 78-648) with L181F, H192Q, S445N, L475W

B1: acetolactate synthase (ALS), resistant enzyme from R-XANST (Xanthium sp.) (protein)
chain: T1 sequence (Q41716 78-648)
notes: mature chloroplast form

Legend:
[1] = tested on: acetolactate synthase (ALS), resistant enzyme from R-XANST; experiment: ALS enzymatic evaluation, resistant enzyme isolated from R-XANST; type: biochemical; details: ratio I50 resistant / I50 sensitive enzyme
Method: (§1) Cocklebur is grown in a greenhouse. Five grams of fresh green leaf tissue are ground to a powder in a mortar at the temperature of liquid nitrogen. The powder is extracted with 100 ml of buffer containing 50 mM N-[2-hydroxyethyl]piperazine-N'-[3-propanesulfonic acid], (EPPS); pH 7.2; 5 mM MgCl2; 2 mM EDTA; 1 mM valine; 1 mM leucine; 10% glycerol; 10 mM pyruvate; 5 mM Dithiothreitol; 1% polyvinyl polypyrrolidone (PVPP) and […] flavin adenine dinucleotide and filtered through cheesecloth. The filtrate was centrifuged at 15,000×g for 15 min.
(§2) The procedures used for the isolation of ALS from cocklebur are similar to those known in the art. The supernatant resulting from centrifugation of the crude extract is brought to 40% ammonium sulfate. The ammonium sulfate pellet is not frozen and is resuspended in standard buffer used for I50 determinations and then gel-filtered through the same buffer. This preparation is used for determinations of Km for pyruvate and I50. The Km is equal to the substrate concentration at which the initial reaction velocity is half maximal and also referred to as the Michaelis-Menten constant. The Km is determined using Lineweaver-Burke double reciporcial plots. I50 is the concentration in which 50% inhibition is observed and is determined from linear regression analysis of the linear portion of the dose/response curve.
(§3) The I50 values by various ALS inhibitors are determined on both sensitive enzymes isolated from S-XANST and resistant enzymes isolated from R-XANST and are reported in Table 1.

[2] = molecular target: T1, acetolactate synthase (ALS), resistant enzyme from R-XANST; experiment: as above; type: biochemical; details: ALS from R-XANST leaves, 40% ammonium sulfate fraction; read-out: I50 (M) Resistant
Method: as §1, §2, §3

[3] = molecular target: T2, acetolactate synthase (ALS), sensitive enzyme from S-XANST; experiment: ALS enzymatic evaluation, sensitive enzyme isolated from S-XANST; type: biochemical, cocklebur (Xanthium sp.); details: ALS from S-XANST leaves, 40% ammonium sulfate fraction; read-out: I50 (M) Sensitive
Method: as §1
as §2, with “I50 is the concentration in which 50% inhibition is observed and is determined from linear regression analysis of the linear portion of the dose/response curve.” left out
as §3

[4] = tested on: S-XANST (susceptible cocklebur); experiment: Herbicidal evaluation, post-emergence spray on susceptible cocklebur; type: in vivo, cocklebur (Xanthium sp.)
Method: (§4) Seeds of S-XANST and R-XANST are planted one per pot in soil mix. Pots are placed on a heating mat and the soil temperature increased from about 65° F. to about 90° F. At the 2-3 leaf stage, plants are treated with test herbicides using a linear track laboratory sprayer calibrated to deliver 42.5 GPA. Plants are watered by subirrigation after herbicide application. Observations of percent control are made 21 days after herbicide application. The test ALS inhibitor herbicides are listed below including their chemical class:
(§5) The effect of the various ALS inhibitors against R-XANST and S-XANST is depicted in FIG. 5. The results are reported as % control wherein 100% injury is equal to complete control as determined by growth. All treatments are replicated four times in a randomized complete block design.
(§6) Additionally tests are preformed at much higher herbicide rates to determine the extent of resistance. […] Glean tested at 1.56 lb ai/A, a rate of 100 times field use, provided 88% injury to R-XANST. Pursuit provides 90% injury to R-XANST when used at 100 times the normal field rate, (6.25 lb ai/A).

[5] = tested on: R-XANST (resistant cocklebur biotype); experiment: Herbicidal evaluation, post-emergence spray on resistant cocklebur; type: in vivo, cocklebur (Xanthium sp.)
Method: as §4, §5, §6

[6] = substrate: CC(=O)C(=O)O; experiment: ALS enzymatic evaluation, resistant enzyme isolated from R-XANST; type: biochemical; details: other: R-XANST enzyme; Lineweaver-Burke plots; pH 7.2
Method: as §1
as §2, with “I50 is the concentration in which 50% inhibition is observed and is determined from linear regression analysis of the linear portion of the dose/response curve.” left out
as §3

| Molecule | Fold-resistance (R/S) [1] | IC50 [2] | other results |
| --- | --- | --- | --- |
| Picolinate | 1,100 | 0.001 M | IC50 [3]: 9e-08 M |
| COc1cc(OC)nc(C(=O)c2c(Cl)ccc(Cl)c2C(=O)O)n1 [SAN 2, 3-6-Dichloro-2-[(4,6-dimethoxy-2-pyrimidinyl)carbonyl]benzoic acid, isopropyl ammonium salt] | – | – | injury to S-XANST ([4]; 0.1 lb ai/A, 2-3 leaf stage, 21 days after application): greater than 95%; injury to R-XANST ([5]; 30 lb ai/A, 21 days after application): ≤ 50% |
| COc1cc(OC)nc(Sc2cccc(Cl)c2C(=O)O)n1 [Staple] | – | – | injury to S-XANST ([4]; 0.03 lb ai/A, 21 days after application): greater than 90%; injury to R-XANST ([5]; highest test rate, 9.0 lb ai/A): ≤ 55% |
| COc1cc(OC)nc(C(=O)c2c(Cl)ccc(Cl)c2C(=O)O)n1 [Di-Cl benzoate] | 2,200 | 0.0006 M | – |
| Cc1ccn2nc(S(=O)(=O)Nc3c(F)cccc3F)nc2n1 [Broadstrike] | 10,000 | 0.0006 M | injury to S-XANST ([4]; 0.01 lb ai/A): greater than 95%; injury on R-XANST ([5]; 6 lb ai/A): 25% |
| COc1nc(C)nc(NC(=O)NS(=O)(=O)c2ccccc2Cl)n1 [Chlorsulfurson, 2-chloro-N-[[CH-methoxy-6-methyl-1,3,5-triazin-2-yl-amino]carbonyl]benzenesulfonamide] | 6,250 | 5e-05 M | injury to R-XANST ([5]; 1.56 lb ai/A, 100 times field use): 88% |
| CC(C)C1(C)N=C(c2nc3ccccc3cc2C(=O)O)NC1=O (stereo not drawn) [Imazaquin, 2-[4,5-dihydro-4-methyl-4-(1-methylethyl)-5-oxo-1H-imidazole-2-yl]-3-quinolinecarboxylic acid] | 250 | 0.0001 M | – |
| CC(C)C[C@H](N)C(=O)O [Leucine] | 1 | 0.001 M | – |
| CCc1cnc(C2=NC(C)(C(C)C)C(=O)N2)c(C(=O)O)c1 (single isomer, unassigned; (+)) [Imazethapyr, (+)-2-[4,5-dihydro-4-methyl-4-(1-methylethyl)-5-oxo-1H-imidazole-2-yl]-5-ethyl-3-pyridinecarboxylic acid] | 100 | 0.0001 M | injury to R-XANST ([5]; 100 times the normal field rate, 6.25 lb ai/A): 90% |
| B1 | – | – | Km [6]: 6 mM |
